Assays:
Format in all cases: functional
Proline--tRNA ligase = molecular target: T1, Proline--tRNA ligase (Plasmodium falciparum (isolate 3D7), UniProt Q8I5R7); experiment: MMV: ProRS recombinant Plasmodium falciparum Prolyl-tRNA-synthetase, assay with yeast tRNA, ATP, and proline and 3 uM MMV malaria box compound, assay read out with kinase glo as % inhibition.
T1 sequence (Q8I5R7 whole entry): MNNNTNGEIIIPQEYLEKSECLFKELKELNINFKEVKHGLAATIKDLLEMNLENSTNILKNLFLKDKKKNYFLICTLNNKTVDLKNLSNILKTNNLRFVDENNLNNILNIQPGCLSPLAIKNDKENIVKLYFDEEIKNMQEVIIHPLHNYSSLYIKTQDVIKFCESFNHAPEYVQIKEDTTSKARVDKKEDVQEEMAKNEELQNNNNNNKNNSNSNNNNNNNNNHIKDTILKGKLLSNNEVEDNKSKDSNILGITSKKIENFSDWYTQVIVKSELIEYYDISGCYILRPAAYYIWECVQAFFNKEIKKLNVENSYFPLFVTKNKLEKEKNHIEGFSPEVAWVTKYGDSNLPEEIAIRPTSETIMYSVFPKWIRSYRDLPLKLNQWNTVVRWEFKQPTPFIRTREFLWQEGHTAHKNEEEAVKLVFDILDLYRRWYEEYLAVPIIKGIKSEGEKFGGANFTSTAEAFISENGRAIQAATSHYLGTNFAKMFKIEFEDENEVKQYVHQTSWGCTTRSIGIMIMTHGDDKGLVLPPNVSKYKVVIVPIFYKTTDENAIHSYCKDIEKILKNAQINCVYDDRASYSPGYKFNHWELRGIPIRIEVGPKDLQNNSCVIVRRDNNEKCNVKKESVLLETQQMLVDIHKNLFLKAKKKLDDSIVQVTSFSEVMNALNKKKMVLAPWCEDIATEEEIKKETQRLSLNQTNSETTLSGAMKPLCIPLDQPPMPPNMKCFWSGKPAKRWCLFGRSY

Lysine--tRNA ligase = Lysine--tRNA ligase (Plasmodium falciparum (isolate 3D7), UniProt Q8IDJ8); experiment: MMV: KRS recombinant Plasmodium falciparum Lysyl-tRNA-synthetase, assay with yeast tRNA, ATP, and lysine and 3 uM MMV malaria box compound, assay read out with kinase glo as % inhibition.
[1] = molecular target: T2, Cdk-related protein kinase 6 (Plasmodium falciparum, UniProt O77239); experiment: Final concentrations were 1.5 uM ATP, 5 mM MnCl2, and 15 ug/ml PK6 in a buffer of 100 mM Tris-HCl (pH 7.5). 50 ug/mL MBP was provided as the substrate; 10 uM staurosporine was used as a control inhibitor. Incubation time was 3 hours and 40 minutes.The catalytic activity of each kinase was considered proportional to ATP consumed, as determined from measurements of residual [ATP] with the luciferase-based reagent Kinase-Glo (Promega) following incubation. Luminescence (proportional to residual [ATP]) was measured on the plate readers FLx800 (BioTek Instruments, Winooski, VT, USA) and MicroBeta2.
T2 sequence (O77239 whole entry): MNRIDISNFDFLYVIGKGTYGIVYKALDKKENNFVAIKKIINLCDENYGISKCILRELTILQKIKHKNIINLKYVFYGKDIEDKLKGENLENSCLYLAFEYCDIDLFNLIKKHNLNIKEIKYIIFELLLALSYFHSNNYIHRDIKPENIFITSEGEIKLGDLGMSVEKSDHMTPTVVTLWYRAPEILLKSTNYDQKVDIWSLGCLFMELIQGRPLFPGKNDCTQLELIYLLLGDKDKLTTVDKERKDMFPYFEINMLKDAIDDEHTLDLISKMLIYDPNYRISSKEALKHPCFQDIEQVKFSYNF

[2] = molecular target: T3, Calcium-dependent protein kinase 4 (Plasmodium falciparum (isolate 3D7), UniProt Q8IBS5); experiment: MMV: CDPK4 Protein kinase inhibition assay using recombinant PfCDPK4, syntide2 peptide substrate, ATP and KinaseGlo to measure % inhibition at 1 uM MMV box compound.
T3 sequence (Q8IBS5 whole entry): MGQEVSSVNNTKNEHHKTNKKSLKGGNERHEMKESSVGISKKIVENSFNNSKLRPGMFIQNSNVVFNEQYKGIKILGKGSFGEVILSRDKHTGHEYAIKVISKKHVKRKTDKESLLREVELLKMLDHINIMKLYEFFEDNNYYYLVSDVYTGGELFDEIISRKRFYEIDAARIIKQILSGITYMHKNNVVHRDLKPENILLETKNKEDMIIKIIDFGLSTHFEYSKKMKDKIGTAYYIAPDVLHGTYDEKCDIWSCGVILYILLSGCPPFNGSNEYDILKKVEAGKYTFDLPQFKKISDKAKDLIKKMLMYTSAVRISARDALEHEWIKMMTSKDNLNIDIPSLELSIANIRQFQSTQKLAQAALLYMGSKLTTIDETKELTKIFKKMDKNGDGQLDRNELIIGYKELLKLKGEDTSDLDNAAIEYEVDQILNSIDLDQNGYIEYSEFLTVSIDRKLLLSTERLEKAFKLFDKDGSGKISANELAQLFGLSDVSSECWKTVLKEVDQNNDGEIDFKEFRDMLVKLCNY

[3] = molecular target: T4, Putative uncharacterized protein pk7 (Plasmodium falciparum, UniProt O96214); experiment: Final concentrations were 1 uM ATP, 2 mM DTT, 20 mM MgCl2, 2 mM MnCl2, 0.01% BSA, and 6 ug/ml PK7, in a buffer of 20 mM Tris-HCl (pH 7.5). The enzyme itself was the only substrate present (since autophosphorylation occurs); 100 uM 1NA-PP1 was used as a control inhibitor. Incubation time was 3 hours.
T4 sequence (O96214 whole entry): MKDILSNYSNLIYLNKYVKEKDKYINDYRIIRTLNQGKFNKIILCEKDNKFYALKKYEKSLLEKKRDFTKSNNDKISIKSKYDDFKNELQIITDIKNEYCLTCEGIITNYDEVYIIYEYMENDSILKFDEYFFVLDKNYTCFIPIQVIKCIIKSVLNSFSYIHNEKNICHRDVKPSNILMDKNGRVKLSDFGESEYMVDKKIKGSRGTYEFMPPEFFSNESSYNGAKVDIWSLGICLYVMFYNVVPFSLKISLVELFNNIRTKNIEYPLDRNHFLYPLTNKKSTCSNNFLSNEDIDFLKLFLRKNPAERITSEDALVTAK

[4] = molecular target: T5, Mitogen-activated protein kinase (Plasmodium falciparum, UniProt Q25917); experiment: Final concentrations were 1 uM ATP, 0.5 mM DTT, 1 mM MgCl2, 0.5 mg/mL BSA, and 10 ug/ml MAP2 in a buffer of 50 mM HEPES (pH 7.0). 0.5 mg/mL histone III-S served as the substrate (13); 100 uM AMP-PNP, an ATP analog, was used as a control inhibitor. Incubation time was 4 hours.
T5 sequence (Q25917 whole entry): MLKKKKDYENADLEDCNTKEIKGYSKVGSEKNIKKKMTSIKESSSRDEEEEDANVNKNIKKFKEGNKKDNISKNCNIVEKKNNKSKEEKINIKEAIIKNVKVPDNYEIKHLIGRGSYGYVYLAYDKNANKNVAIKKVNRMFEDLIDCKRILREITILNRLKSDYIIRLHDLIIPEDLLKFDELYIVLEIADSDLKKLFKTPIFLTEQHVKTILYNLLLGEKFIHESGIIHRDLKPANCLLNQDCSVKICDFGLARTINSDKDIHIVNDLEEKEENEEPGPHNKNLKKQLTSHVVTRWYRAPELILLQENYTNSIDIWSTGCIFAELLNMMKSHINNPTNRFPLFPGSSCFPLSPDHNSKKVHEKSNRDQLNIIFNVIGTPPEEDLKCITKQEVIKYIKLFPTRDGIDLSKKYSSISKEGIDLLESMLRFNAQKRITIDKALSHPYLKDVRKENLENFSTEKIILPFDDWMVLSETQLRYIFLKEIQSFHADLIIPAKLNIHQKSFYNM

[5] = molecular target: Calcium-dependent protein kinase 1 (Plasmodium falciparum, UniProt P62344); experiment: MMV: CDPK1 Protein kinase inhibition assay using recombinant PfCDPK1, syntide 2 peptide substrate, ATP and KinaseGlo to measure % inhibition at 1 uM MMV box compound.

Measured: IC50

Sequence of Lysine--tRNA ligase (Q8IDJ8 whole entry): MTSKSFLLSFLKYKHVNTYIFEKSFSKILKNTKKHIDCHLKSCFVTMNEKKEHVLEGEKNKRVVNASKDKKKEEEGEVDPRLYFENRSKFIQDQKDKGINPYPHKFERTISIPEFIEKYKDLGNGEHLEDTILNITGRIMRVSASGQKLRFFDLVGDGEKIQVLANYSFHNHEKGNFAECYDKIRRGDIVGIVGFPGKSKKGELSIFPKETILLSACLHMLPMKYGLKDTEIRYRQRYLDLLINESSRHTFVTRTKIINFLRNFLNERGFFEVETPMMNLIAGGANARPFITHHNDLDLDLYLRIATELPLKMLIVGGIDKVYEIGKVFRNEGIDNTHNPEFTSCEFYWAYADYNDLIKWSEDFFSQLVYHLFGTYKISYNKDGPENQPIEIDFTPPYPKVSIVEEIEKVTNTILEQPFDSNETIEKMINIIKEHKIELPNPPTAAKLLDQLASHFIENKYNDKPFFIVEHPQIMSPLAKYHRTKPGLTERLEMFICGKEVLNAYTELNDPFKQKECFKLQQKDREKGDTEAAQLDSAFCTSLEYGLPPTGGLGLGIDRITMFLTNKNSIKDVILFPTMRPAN
Sequence of Calcium-dependent protein kinase 1 (P62344 whole entry): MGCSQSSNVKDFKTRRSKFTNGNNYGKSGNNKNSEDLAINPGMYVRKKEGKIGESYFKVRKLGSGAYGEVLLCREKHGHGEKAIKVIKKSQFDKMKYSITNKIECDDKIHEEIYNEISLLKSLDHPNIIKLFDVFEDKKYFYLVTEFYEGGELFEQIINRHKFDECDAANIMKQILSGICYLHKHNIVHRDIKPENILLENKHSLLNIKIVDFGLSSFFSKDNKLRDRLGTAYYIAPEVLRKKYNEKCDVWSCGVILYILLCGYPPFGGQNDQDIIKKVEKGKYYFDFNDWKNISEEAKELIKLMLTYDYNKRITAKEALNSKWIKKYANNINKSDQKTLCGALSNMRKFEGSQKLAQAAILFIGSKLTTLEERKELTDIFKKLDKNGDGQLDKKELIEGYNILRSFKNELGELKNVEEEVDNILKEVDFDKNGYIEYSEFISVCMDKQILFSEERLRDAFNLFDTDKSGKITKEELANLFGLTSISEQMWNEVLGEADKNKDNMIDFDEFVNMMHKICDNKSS

Cc1ccc2nc(C)cc(Nc3cccc(C(F)(F)F)c3)c2c1
> 2500 nM: Proline--tRNA ligase | Lysine--tRNA ligase
> 1000 nM: all other assays above

CCC1(C)CC(CCNCc2ccccc2O)(c2ccc(C)cc2)CCO1 (stereo not given)
> 2500 nM: Proline--tRNA ligase | Lysine--tRNA ligase
> 1000 nM: all other assays above

Cc1ccc2cc3c(N)c4c(C)ccc(C)c4nc3nc2c1
> 2500 nM: Proline--tRNA ligase | Lysine--tRNA ligase
> 1000 nM: all other assays above

CCOC(=O)C1(Cc2ccccc2)CCN(Cc2cccc(OC)c2O)CC1
> 2500 nM: Proline--tRNA ligase | Lysine--tRNA ligase
> 1000 nM: all other assays above

COc1ccc(CNC2CCN(c3ccc(NC(=O)c4cccc(Cl)c4)cc3)CC2)cc1OC
> 2500 nM: Proline--tRNA ligase | Lysine--tRNA ligase
> 1000 nM: all other assays above

COc1cc(C(=O)Nc2ccc(-c3nc4ccccc4[nH]3)cc2)cc(OC)c1OC
> 2500 nM: Proline--tRNA ligase | Lysine--tRNA ligase
> 1000 nM: all other assays above

CCOC(=O)c1c(NC(=O)c2ccccc2)sc2c(O)c(CN(CC)CC)ccc12
> 2500 nM: Proline--tRNA ligase | Lysine--tRNA ligase
> 1000 nM: all other assays above

CCOc1c(Cl)cc(CNC(C)C(O)c2ccccc2)cc1OC (stereo not given)
> 2500 nM: Proline--tRNA ligase | Lysine--tRNA ligase
> 1000 nM: all other assays above

COc1ccc(C(C)=O)cc1N1C(=O)C2C(C1=O)C1(c3ccccc3)C(=O)C2(c2ccccc2)C(c2ccc(C)cc2)=C1c1ccc(C)cc1 (stereo not given)
> 2500 nM: Proline--tRNA ligase | Lysine--tRNA ligase
> 1000 nM: all other assays above

O=C(c1ccccc1F)N(Cc1ccc(Cl)cc1)c1ccccn1
> 2500 nM: Proline--tRNA ligase | Lysine--tRNA ligase
> 1000 nM: all other assays above
